Experimental data: patent US20240325381A1 (GUANGZHOU INSTITUTES OF BIOMEDICINE AND HEALTH, CHINESE …, priority 2021, published 2024)

How the values were obtained:
Assay type in all cases: cell-based
[1] = test system: Mito-DsRed-labeled neural precursor cells; test: Mitochondrial efflux (mitochondria, lysosome and cell membrane overlap); details: 15 μM flunarizine, 24 hours; Lysotraker DeepRed, FM1-43
Procedure: Mito-DsRed-labeled neural precursor cells were plated on a glass slide, and the surface coverage of the neural precursor cells on the glass slide was 80%. […] The final concentration was 15 μM. The lysosomes were labeled with Lysotraker DeepRed, the cell membranes were labeled with FM1-43, and then the results were detected with a confocal microscope.

[2] = test system: neural precursor cells labeled with LAMP1-GFP and mito-DsRed; test: Mitochondria entering lysosomes (LAMP1-GFP / mito-DsRed overlap); details: 15 μM flunarizine, 12 hours
Procedure: The neural precursor cells labeled with LAMP1-GFP and mito-DsRed were plated on a glass slide, and the surface coverage of the neural precursor cells on the glass slide was 80%. […] Then, the results were detected with a confocal microscope.

[3] = test system: neural precursor cells labeled with LC3-GFP and mito-DsRed; test: Co-localization of mitochondria with LC3-GFP labeled autophagosomes (confocal microscope); details: 15 μM flunarizine, 12 hours
Procedure: The neural precursor cells labeled with LC3-GFP and mito-DsRed were plated on the glass slides, and the surface coverage of the neural precursor cells on the glass slides was 80%. […] Then, the results were detected with a confocal microscope.

[4] = test system: Mito-GFP-labeled neural precursor cells; test: Clearance of mitochondria by flunarizine in mito-GFP-labeled neural precursor cells (confocal microscopy); details: for mitochondrial morphology in neural precursor cells: 3 days
Procedure: Mito-GFP-labeled neural precursor cells were plated on a 6-well plate, and the surface coverage of the neural precursor cells on the 6-well plate was 80%. […] Then, the cells were detected with a confocal microscopy and the clearance efficiency of the mitochondrial was observed.
The mito-GFP-labeled neural precursor cells were plated on a 6-well plate, and the surface coverage of the neural precursor cells on the 6-well plate was 80%. […] Then, the results were detected with a confocal microscope and the efficiency of the mitochondrial clearance was observed.

[5] = test system: Mito-GFP-labeled mouse embryonic fibroblasts (MEF cells); test: Mitochondrial clearance in MEF cells with mitophagy core genes knocked off; details: 15 μM flunarizine, 3 days; WT, ATG5, PARK2, FUNDC1
Procedure: Mito-GFP-labeled mouse embryonic fibroblasts (MEF cells) were plated on a glass slide. The corresponding classic mitophagy core genes (including WT, ATG5, PARK2, and FUNDC1) in the MEF cells were knocked off. The surface coverage of the cells on the glass slide was 80%. […] Then, the cells were detected with a confocal microscope.

[6] = test system: Mito-GFP-labeled neural precursor cells; test: Mitochondrial clearance after knockdown of classic mitophagy core genes in neural precursor cells; details: 15 μM flunarizine, 3 days; shTRC, shATG5-a/b, shPINK1-a/b, shFUNDC1-a/b
Procedure: The corresponding classic mitophagy core genes (including shTRC, shATG5-a, shATG5-b, shPINK1-a, shPINK1-b, shFUNDC1-a, and shFUNDC1-b) in mito-GFP-labeled neural precursor cells were knocked down. Then, the cells were plated on a glass slide, the surface coverage of neural precursor cells on the glass slide was 80%. […] Thereafter, the cells were detected with a confocal microscope. The specific results are illustrated in FIG. 3B and FIG. 3C.

## Fc1ccc(C(c2ccc(F)cc2)N2CCN(C/C=C/c3ccccc3)CC2)cc1 [flunarizine]
[1]
  mitochondrial efflux vesicles on the cell surface: efflux vesicles wrapped around mitochondria were formed
[2]
  overlap of LAMP1 and mito (mitochondria entering lysosomes): wrapped by lysosomes
[3]
  co-localization of mitochondria with LC3-GFP labeled autophagosomes: not co-localized with LC3-GFP labeled autophagosomes
[4]; 15 μM flunarizine, 3 days of treatment, 80% surface coverage
  removal of intracellular mitochondria: substantially completely removed
[4]; after 3 days of treatment, tested 5, 10, 15, 20, 25 μM
  concentration that can effectively remove the mitochondria in the cells: above 10 μM
[4]; contact time more than 3 days
  removal of intracellular mitochondria: completely removed
[4]; final concentration 15 μM
  mitochondrial morphology in neural precursor cells: basically not observed
[4]; final concentration 20 μM
  mitochondrial morphology in neural precursor cells: basically not observed
[4]; final concentration 25 μM
  mitochondrial morphology in neural precursor cells: basically not observed
[5]
  mitochondrial clearance in MEF cells with mitophagy genes knocked off: knockdown of mitophagy-related genes cannot inhibit mitochondrial clearance
[6]
  mitochondrial clearance after knockdown of mitophagy core genes: knockdown of related genes could not inhibit mitochondrial clearance
